According to article PMC12612088 (Scientific Reports, 2025):

Target: Pyruvate Dehydrogenase Kinase 3 (PDK3) (Homo sapiens, UniProt Q15120)
Test: BIOMOL Green ATPase assay with purified PDK3
Format: biochemical

Chain of Pyruvate Dehydrogenase Kinase 3 (PDK3) (Q15120 whole entry): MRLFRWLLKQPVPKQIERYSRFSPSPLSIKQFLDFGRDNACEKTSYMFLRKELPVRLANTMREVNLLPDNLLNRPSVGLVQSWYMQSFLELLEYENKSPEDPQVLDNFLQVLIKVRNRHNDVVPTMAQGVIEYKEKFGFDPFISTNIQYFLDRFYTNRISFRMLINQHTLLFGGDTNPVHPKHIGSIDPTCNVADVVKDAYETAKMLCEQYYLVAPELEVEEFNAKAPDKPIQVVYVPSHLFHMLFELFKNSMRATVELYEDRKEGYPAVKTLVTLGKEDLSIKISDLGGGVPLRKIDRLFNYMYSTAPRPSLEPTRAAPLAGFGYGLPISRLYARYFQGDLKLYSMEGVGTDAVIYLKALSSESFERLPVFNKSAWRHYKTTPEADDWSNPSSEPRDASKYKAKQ

IC50: 3.52 µM
SMILES: Cc1ccc(O)cc1 [p-C, 4-methylphenol]
